We go through twelve compounds from ChEMBL document CHEMBL3870330, “Exploring the anti-biofilm activity of cinnamic acid derivatives in Candida albicans” (2016).

Type in all cases: functional
For assay [1], the system named is Candida albicans. The experiment in a line: Antibiofilm activity against mature biofilm of Candida albicans ATCC 10231 after 24 hrs by XTT reduction assay. (In general: Tetrazolium dyes change colour on reduction, which living cells bring about.)
Assay [2] concerns Candida albicans. The experiment in a line: Antibiofilm activity against Candida albicans ATCC 10231 after 24 hrs by XTT reduction assay.
Assay [3] concerns Candida albicans. The experiment in a line: Antifungal activity against planktonic cells of Candida albicans ATCC 10231 after 48 hrs by microdilution assay. Particulars: ATCC 10231, 48 h. On the technique in general: In broth dilution the organism is exposed to a series of concentrations in liquid medium.

SMILES strings stand for the structures. Values after ≈ are worked out from the molar mass of the structure shown.

Consider `O=C(/C=C/c1ccccc1)NCCCn1ccnc1`, for which the MBIC50 in the assay on Candida albicans [1] and in the assay with Candida albicans [2] was >128 µg/mL throughout. Besides, the MIC50 (usually an inhibitory concentration at the 50% level, which refers to growth in some studies and to a panel of isolates in others) with Candida albicans [3] is > 128 µg/mL.
For `O=C(/C=C/c1ccccc1)NCCc1c[nH]c2ccccc12`, the MBIC50 is >128 µg/mL in the assay with Candida albicans [1] and 8 to 128 µg/mL in the assay with Candida albicans [2]. Also, the MIC50 in the assay with Candida albicans [3] was > 128 µg/mL.
With `O=C(/C=C/c1ccccc1)N1CCN(c2ncccc2[N+](=O)[O-])CC1`, the MBIC50 with Candida albicans [1] and in the assay with Candida albicans [2] was >128 µg/mL each time. Besides, in the assay on Candida albicans [3], the MIC50 is > 128 µg/mL.
With `O=C(/C=C/c1ccccc1)OC(Cn1cncn1)(Cn1cncn1)c1ccc(F)cc1F`, the MBIC50 with Candida albicans [1] is >32 to 128 µg/mL; in the assay with Candida albicans [2] it was 4 to 128 µg/mL. Also, the MIC50 against Candida albicans [3] fell in the range of 0.5 to 64 µg/mL (≈ 1.15 to 147 µM).
Regarding `O=C(/C=C/c1ccccc1)OC(Cn1ccnc1)c1ccc(Cl)cc1Cl` (stereo unspecified), the MBIC50 in the assay on Candida albicans [1] fell in the range of 8 to 64 µg/mL; in the assay with Candida albicans [2], 2 to 64 µg/mL. This compound also showed an MIC50 against Candida albicans [3] of 2 to 16 µg/mL (≈ 5.16 to 41.3 µM).
For `O=C(/C=C/c1ccccc1)OCc1ccc([N+](=O)[O-])o1` the same measures were 64 µg/mL, 16 to 64 µg/mL and 2 to 16 µg/mL (≈ 7.32 to 58.6 µM).
Take `O=C(/C=C/c1ccccc1)Nc1nc2ccc([N+](=O)[O-])cc2s1`: the MBIC50 result in the assay with Candida albicans [1] and in the assay on Candida albicans [2] was “>=64 - 128 ug ml-1” throughout. Also, in the assay on Candida albicans [3], the MIC50 was > 128 µg/mL.
With `Cc1ncc([N+](=O)[O-])n1CCOC(=O)/C=C/c1ccccc1`, the MBIC50 in the assay with Candida albicans [1] is >128 µg/mL; in the assay with Candida albicans [2] it was “>=32 - 128 ug ml-1”. The MIC50 with Candida albicans [3] is ≥ 128 µg/mL.
The like results for `O=C(/C=C/c1ccccc1)N1CCN(c2ccc([N+](=O)[O-])cc2)CC1` were, in that order, >32 to 128 µg/mL, >128 µg/mL and 32 to 128 µg/mL (≈ 94.8 to 379 µM).
Take `O=C(/C=C/c1ccccc1)OCc1ccco1`: the MBIC50 entry with Candida albicans [1] is recorded as “>=128 ug ml-1”; in the assay on Candida albicans [2] it was “>=16 - 128 ug ml-1”. Further, in the assay with Candida albicans [3], the MIC50 lay in the range of 64 to 128 µg/mL (≈ 280 to 561 µM).
In the case of `O=C(O)/C=C/c1ccccc1` [CINNAMIC ACID], the MBIC50 in the assay on Candida albicans [1] and in the assay with Candida albicans [2] was >128 µg/mL in each case. Further, the MIC50 in the assay with Candida albicans [3] is > 128 µg/mL.
Take `OC(Cn1cncn1)(Cn1cncn1)c1ccc(F)cc1F` [FLUCONAZOLE]: the results for the MBIC50 in the assay with Candida albicans [1] and in the assay on Candida albicans [2] were >128 µg/mL and 128 µg/mL, respectively. The MIC50 against Candida albicans [3] came to 0.5 µg/mL (≈ 1.63 µM).
